The text below walks through data of patent US4816472A, “Derivatives of 19,20-Bis-nor-prostanoic acid with antiulcer and anorectic activity, process for their preparation and pharmaceutical compositions thereof” (Istituto Biochemico Italiano Giovanni Lorenzini S.p.A., priority 1985, dated 1989).

Structures can show the parent of a compound that is named as a salt.

The first assay deals with aspirin-induced ulcers in the rat. Briefly: Aspirin induced gastric ulcers in the rat. The class given is in vivo. The conditions noted are these: 200 mg/kg of drug. The method, then: The anitulcer activity of these derivatives was evaluated on ulcers induced by the administration of ethanol, hydrochloric acid and sodium hydroxide in the rat, also on gastric ulcers induced by aspirin in the rat, and on their influence on gastric secretions in the rat.
(4) Aspirin induced gastric ulcers in the rat:
For carrying out this test, the method described by H. A. Carmichael, L. M. Nelson, R. I. Russel in Gastroenterology 74, 1229 (1978) is used, the disclosure of which is incorporated herein by reference.
On to `CCCCCCC1CCC(NC)C1CCCCCCC(=O)O` (stereo not drawn) [drawing 27], for which the “Percent inhibition of aspirin-induced ulcers in the rat” value (shortened to “Percent inhibition”) is on record as 87%. Regarding `CCCCCCC1CCC(N(C)C)C1CCCCCCC(=O)O` (stereo not drawn) [drawing 28], the “Percent inhibition” value was 88%. Turning to `CCCCCCC1CCC(NC(C)C)C1CCCCCCC(=O)O` (stereo not drawn) [drawing 29], the “Percent inhibition” value was 63%. Take `CCCCCCC1CCC(NC(C)=O)C1CCCCCCC(=O)O` (stereo not drawn) [drawing 30]: the “Percent inhibition” value turned out to be 58%. `CCCCCCC1CCC(O)C1CCCCCCC(=O)O` (stereo not drawn) [drawing 31]: the “Percent inhibition” value was 64%.

For another assay, the system named is peptic ulcer.
Test: not given
The following applies: previous finding; cited from earlier work.
On to `CCCCCCC1CCC(O)C1CCCCCCC(=O)O` (stereo not drawn) [Rosaprostol, 9-hydroxy-91,20-bis-nor-prostanoic acid sodium salt], for which the “antiulcer properties of the natural prostaglandins / other prostaglandin properties” value is “maintaining the antiulcer properties of the natural prostaglandins, completely loses the others”.
